# Measured values as given in a melting point compilation (Tetko et al.; mined from patent text by program, amines drawn as free bases though some values may be those of a salt).
row,Structure (SMILES),melting point [°C]
1,O=C(O)c1ccc(OCCNC(=O)c2ccc(Cl)cc2)cc1,219 to 220
2,COC(=O)NNC(=O)Cc1ccccc1,94 to 95
3,Oc1ccc(CCc2nc(-c3cccs3)c[nH]2)cc1,166 to 167
4,Cc1ccc2c(c1)C(C)(O)c1ccccc1C=C2 (stereo unspecified),102 to 103
5,C=CCN(CC=C)CC(=O)N1c2ccccc2N(C)C(=O)c2cnc(-c3ccccc3)nc21,139 to 140
6,CCCCCCCCC1CNc2cc(C(=O)OC)ccc21 (racemic),57 to 60
7,Cn1c(COc2ccc(CC(OCc3ccc(F)cc3)C(=O)O)cc2)nc2ccc(Oc3ccc(C45CC6CC(CC(C6)C4)C5)cc3)cc21 (stereo unspecified),148 to 149
8,CC(C)C1=C(c2ccc(F)cc2)C(=O)C(C(C)C)=C(C(C)C)C1=O,122 to 124
9,O=C(O)CC1CCCc2c1n(Cc1cccc(Cl)c1)c1c(F)cc(F)cc21 (stereo unspecified),188 to 189
10,CSc1noc(-c2ccc(O)cc2)c1C#N,194 to 196
11,COCCOc1ccc2c(C(C[N+](=O)[O-])c3cccc(NC(=O)OCc4ccccc4)c3C)c[nH]c2c1 (stereo unspecified),125
12,CCOCc1nc2c(N)nc3cc(Cl)ccc3c2n1CC(C)(C)O,238 to 240
13,COc1cc(-c2cnc3[nH]cc(C(=O)C(C)(CO)CO)c3n2)cc(OC)c1OC,222 to 223
14,N#Cc1cc(-c2c3ccccc3cc3sc4ccccc4c23)ccc1OCC(=O)O,235 to 236
15,NCCCNc1nccc(NC(N)=NCC(F)(F)F)n1,159
16,CC(C)c1nn(-c2ccc(C(F)(F)F)cn2)cc1CCCOc1c(Cl)cccc1CC(=O)O,141 to 142
17,CC1=C(C)c2cc(Br)ccc2Oc2ccccc21,112 to 114
18,COC12CC(CCOC(=O)c3[nH]c(C)cc3C)CN(C)C1Cc1cn(C)c3cccc2c13 (stereo unspecified),152 to 153
19,CC(CC(=O)O)C(=O)c1ccc(C(=O)C(C)CC(=O)O)cc1 (stereo unspecified),195 to 202
20,CS(=O)(=O)c1cccc(-c2ccc(C3C(CCC(O)c4ccc(F)cc4)C(=O)N3c3ccc(F)cc3)cc2)c1 (stereo unspecified),104
21,COc1ccc(C2(c3ccc(OC)cc3)CC2(Br)Br)cc1,173 to 175
22,CNC(=O)C1CCNC(c2ccnc3ccccc23)C1 (stereo unspecified),250 to 254
23,N=c1ccccn1Cc1ccccc1,52 to 54
24,C[C@]1(COc2ccc(N3CCC(Nc4cc(Cl)cc(Cl)c4)CC3)cc2)Cn2cc([N+](=O)[O-])nc2O1,122 to 124
25,CONC(=O)c1cccc(-c2nc3ccccc3c(=O)o2)c1,223 to 226
26,CCN(CC)c1ccc2nc3c4ccccc4c(=Nc4nc5ccc(Cl)cc5s4)cc-3oc2c1,229 to 231

row,Structure (SMILES),melting point [°C]
1,CNC(=O)C(Cc1ccc(OC)cc1)NC(=O)C(CC(C)C)C(S)CC(=O)NCC(N)=O (stereo unspecified),247 to 252
2,CC(=O)N(CCCCn1ccnc1)C1=Nc2cccc3cccc1c23,127 to 130
3,COC(=O)c1cc(O)c(O)c([N+](=O)[O-])c1,144 to 145
4,COC(=O)CNc1ccc(CNC(=O)C2Cc3ccccc3N2S(=O)(=O)c2ccc(-c3cccc(C(F)(F)F)c3)cc2)cc1 (stereo unspecified),85
5,c1coc(-c2n[nH]c3c2Cc2ccccc2-3)c1,195 to 197
6,NNC(=O)C1(Cl)CC1(Cl)Cl (stereo unspecified),122 to 123
7,CCN1C(=O)COc2ccc(-c3sc(N)nc3-c3cccc(C)n3)cc21,228 to 230
8,CC(C)c1ccc(OC(C)(Cc2ccc(OCCNC(=O)c3ccc(-c4ccccn4)cc3)cc2)C(=O)O)cc1 (stereo unspecified),141 to 143
9,O=C(O)c1ccc(NCCCOc2cccc3ccccc23)cc1,146 to 147
10,CCOC(=O)C1=C(C)NC(N)=C(C(=O)OC(C)C)C1c1ccccc1C(F)(F)F (stereo unspecified),106
11,CCCN(C)C(C)CN1CCc2c(c(=O)oc3cc(OC)c(OC)cc23)C1 (stereo unspecified),81 to 85
12,COC(=O)c1ccc(O)c(C(=O)OC)c1,93 to 94
13,CCCCc1nn(-c2ccccc2C(F)(F)F)c(=O)n1Cc1ccc(-c2ccccc2S(=O)(=O)Nc2ccc([N+](=O)[O-])cc2)cc1,186 to 187
14,Cc1cc(-c2c[nH]c(N)n2)ccn1,226 to 228
15,CCCc1nc(NC2CC2)nc(N2CCOCC2)n1,104
16,Cc1cc(Cn2nnn(-c3ccc(C(F)(F)F)cc3)c2=O)ccc1NC(=O)c1cccc(I)c1C(=O)NC(C)(C)CS(C)(=O)=O,108 to 112
17,COc1cccc(NC(=O)c2ccccc2N)c1,75 to 77
18,CCOC(=O)C1=C(C)S(=O)CCS1(=O)=O (stereo unspecified),138 to 140
19,Nc1cc(Nc2ccccc2)nc2c1ncn2C1OC(CO)C(O)C1O (stereo unspecified),192 to 195
20,O=C1c2ccccc2-c2oc(=O)c3ccccc3c21,254 to 256
21,Cc1nc(-c2ccccc2)nc(-c2cccc([N+](=O)[O-])c2)c1C(=O)O,208 to 209
22,CC1Cc2c(N)ccc(Cl)c2O1 (stereo unspecified),70
23,Oc1c(CN2CCCC2)cc(Nc2ccc3ccccc3n2)cc1CN1CCCC1,64 to 66
24,COc1nc2cc(Br)cc(C=O)c2nc1OC,179 to 182
25,Fc1ccc(-c2cc(Cl)c3cc(F)ccc3n2)cc1,130 to 133
26,CCOC(=O)C1Cc2cc(OC)c(OC)cc2N1C(=O)CCSC(C)=O (stereo unspecified),104 to 106

row,Structure (SMILES),melting point [°C]
1,CC(=O)OCCCc1c2ccccc2cc2ccccc12,107 to 109
2,CC(C)(C)OCCCNC(=O)c1n[nH]cc1NC(=O)c1ccccn1,193 to 194
3,O=C(O)CCc1ccc(SCCNS(=O)(=O)c2ccc(Cl)cc2)cc1,117 to 119
4,COc1ccc2nc3sc(C(=O)O)cn3c(=O)c2c1,247 to 248
5,CN1C(=O)CC[C@]2(C)c3ccc(-c4ccc(F)c(F)c4F)cc3CC[C@@H]12,100 to 102
6,CC(Cc1ccc(OCC(=O)O)cc1)NS(=O)(=O)c1ccc(Cl)cc1 (stereo unspecified),132 to 136
7,CC(c1ccccc1)n1cncc1C(N)=O (stereo unspecified),136 to 137
8,Cc1ccccc1N=NC1=NCCS1,79 to 80
9,CNS(=O)(=O)c1cc2c(c(C(=O)NC3CCN(Cc4ccccc4)CC3)c1)OCCO2,228
10,CN1C(=O)C(c2cccc(O)c2)(c2cnn(CC(F)(F)F)c2)N=C1N (stereo unspecified),118 to 120
11,COC(=O)c1cc(O)nc2ccccc12,240 to 241
12,COc1cc(CCCC2SC(=O)NC2=O)ccc1OCc1coc(CCc2ccccc2)n1 (stereo unspecified),126 to 127
13,COC(=O)CNc1cc(CS(=O)(=O)C=Cc2c(OC)cc(OC)cc2OC)ccc1OC,182 to 185
14,COc1c(NC(=O)c2ccc(Br)cc2)ccc2cc(CN3CCCC3)cnc12,121 to 122
15,CCOC(=O)c1cc2cc(F)cc(NS(=O)(=O)c3cccs3)c2[nH]1,174 to 175
16,O=C1Cc2ccc(F)cc2C(c2ccc(Cl)cc2)N1 (stereo unspecified),131 to 133
17,O=c1ncc(Br)cn1CC=CCl,114 to 116
18,Cc1ccccc1C(=O)Nc1ccc(C(=O)N2CCCC(N)c3ccccc32)cc1 (stereo unspecified),198 to 200
19,CCCCCCCCC(C(=O)O)C(O)(CC(=O)O)C(=O)O (stereo unspecified),65.8 to 66.7
20,CN(C(=S)NC(=O)c1ccccc1)c1ccc(-c2ncn(-c3ccc(OC(F)(F)F)cc3)n2)cc1,166 to 169
21,CCC1(CC)C(=N)N(c2ccc(C#N)c(C(F)(F)F)c2)C(=S)N1C,167 to 168
22,O=C(CC1CCCCC1)Nc1c(Cl)ccc2nc(N3CCC(c4noc(=O)[nH]4)CC3)ccc12,233 to 235
23,CCOC(=O)C1=C(C)N2CCNC2=C(C(=O)OCC)C1C (stereo unspecified),138
24,CCOCc1nc2c(N)nc3ccccc3c2n1CCCCS(N)(=O)=O,155 to 158
25,O=C(CN1CCC(Cc2ccccc2)CC1)Nc1ccc2cn[nH]c2c1,165 to 169
26,Cc1oc(-c2ccccc2)nc1CCOc1ccc(C[C@H](Nc2ccccc2C(=O)c2ccccc2)C(=O)O)cc1,85 to 90

row,Structure (SMILES),melting point [°C]
1,Clc1cccc(Nn2cnc3c2CCCC3)c1,180
2,Cc1c(C(F)(F)C(F)(F)F)oc2c(C=O)cccc12,78
3,O=C(NCCc1c[nH]c2ccc(F)cc12)OCc1ccccc1,104 to 105
4,O=c1[nH]c(-c2csc3ccccc23)nc2ccc(N3CCOCC3)cc12,> 300
5,Cc1ccc2c(c1)S(=O)(=O)c1cc(C)ccc1O2,175 to 176
6,Oc1nsc(Cc2ccccc2)n1,50
7,CC(C)(C)OC(=O)N[C@H]1CC[C@@H](NC(=O)OC(C)(C)C)CC1,144
8,CCOc1ccc(C(=O)N2CCc3cc(S(=O)(=O)N4CC(c5ccccc5)NC4=O)ccc32)cc1 (stereo unspecified),216 to 218
9,CC(C)(C)OC(=O)NCC(=O)Nc1cccc(NC(=O)C(=O)N2CCC(Cc3ccccc3)CC2)c1,81 to 85
10,CC(C)N(C(=S)Nc1ccc(NC(=S)N(C(C)C)C(C)C)cc1)C(C)C,185
11,OCCCN1CCN(C2=Nc3ccccc3Nc3ccsc32)CC1,172 to 173
12,CCOC(=O)C1Cc2cc(OC)c(OC)cc2C1=O (stereo unspecified),140 to 141
13,COC(=O)C(Cc1ccc(Cl)cc1)NC(=O)C1CCC(CNC(=O)OC(C)(C)C)CC1 (stereo unspecified),178 to 179
14,CCCc1c(O)ccc2c1OC(C(=O)OC)CC2 (stereo unspecified),51 to 53
15,COCOc1ccccc1-c1cc(-c2cccc(C(=O)OC)c2OC)c(C#N)c(NC(=O)c2ccco2)n1,140 to 141
16,OC1CCC2(CC1)CCC(CCc1ccoc1)CC2 (stereo unspecified),66 to 69
17,COC(=O)c1ccc(-c2ccc(C(CC3CCOCC3)c3ccc(S(=O)(=O)C4CC4)cc3)[nH]2)nc1 (stereo unspecified),150 to 152
18,Fc1cc(Cl)ccc1-n1nn[nH]c1=S,128
19,Cc1ccc2c(c1)C1(CNC(=O)C1)CC2=O (stereo unspecified),188 to 192
20,Cc1ccc(-c2ccc(C(=O)Nc3ccc4cc(CN5CCCC5)cnc4c3C)cn2)cc1,178 to 180
21,CNc1c(C#N)cnn1-c1ccc(Cl)c(Cl)c1Cl,163 to 165
22,CC1CCCN(CCNc2ccnc3cc(Cl)ccc23)C1 (racemic),148 to 151
23,COc1cc2c(cc1F)C(=O)C(=O)N2,260
